Test results reported in ChEMBL document CHEMBL5126504, “A gulose moiety contributes to the belomycin (BLM) disaccharide selective targeting to lung cancer cells” (Eur J Med Chem, 2021).

Tests used:
[1] = Drug uptake in human A549 cells overexpressing GLUT1 assessed as increase in fluorescence intensity at 25 uM measured after 1 hr by DAPI staining based confocal fluorescence microscopic analysis; format: ADME, cell-based; settings: a549, 1 h
A549 = assay: Cytotoxicity against human A549 cells assessed as reduction in cell viability after 48 hrs by MTT assay; format: functional, cell-based; settings: A549, 48 h
[2] = Cytotoxicity against human BEAS-2B cells assessed as reduction in cell viability after 48 hrs by MTT assay; format: toxicity, cell-based
[3] = Selectivity index, ratio of IC50 for cytotoxicity against human BEAS-2B cells to IC50 for cytotoxicity against human A549 cells; format: toxicity, cell-based; settings: BEAS-2B cells and A549 cells, read-out: Ratio IC50
[4] = Drug uptake in human A549 cells overexpressing GLUT1 assessed as increase in fluorescence intensity at 25 uM measured after 1 hr at 37 degreeC by DAPI staining based confocal fluorescence microscopic analysis; format: ADME, cell-based; settings: a549, 1 h

| Drug uptake [1] | Drug uptake [4] | SMILES | IC50 (A549) | IC50 at 48 h [2] | selectivity ratio [3] |
| --- | --- | --- | --- | --- | --- |
| Active | – | CC[N+]1=C(/C=C/C=C/C=C2/N(CCCCCC(=O)NCCOCCOC3O[C@@H](CO)[C@@H](O)[C@H](O)[C@@H]3O[C@H]3O[C@H](CO)[C@@H](O)[C@H](OC(N)=O)[C@@H]3O)c3ccc(S(=O)(=O)O)cc3C2(C)C)C(C)(C)c2cc(S(=O)(=O)[O-])ccc21 (stereo partly drawn) | – | – | – |
| – | – | CC(=O)OC[C@H]1OC(OCCCCCC(=O)Nc2ccn(C3OC(CO)C(O)C3(F)F)c(=O)n2)[C@@H](O)[C@@H](O)[C@@H]1O (stereo partly drawn) | 460 nM | 7780 nM | – |
| – | – | CC(=O)OC[C@H]1OC(OCCCCCC(=O)Nc2ccn(C3OC(CO)C(O)C3(F)F)c(=O)n2)[C@H](O)[C@H](O)[C@H]1O (stereo partly drawn) | 260 nM | 5430 nM | 20.9 |
| Active | Active | CC[N+]1=C(/C=C/C=C/C=C2/N(CCCCCC(=O)NCCOCCOC3O[C@H](CO)[C@H](O)[C@@H](O)[C@H]3O)c3ccc(S(=O)(=O)O)cc3C2(C)C)C(C)(C)c2cc(S(=O)(=O)[O-])ccc21 (stereo partly drawn) | – | – | – |
| – | – | CC(=O)OC[C@H]1OC(OCCCCCC(=O)Nc2ccn(C3OC(CO)C(O)C3(F)F)c(=O)n2)[C@@H](O)[C@@H](OC(N)=O)[C@@H]1O (stereo partly drawn) | 920 nM | 7770 nM | – |
| – | – | Nc1ccn([C@@H]2O[C@H](CO)[C@@H](O)C2(F)F)c(=O)n1 [GEMCITABINE] | 44 nM | 37 nM | 0.88 |
| Active | Active | CC[N+]1=C(/C=C/C=C/C=C2/N(CCCCCC(=O)NCCOCCOC3O[C@@H](CO)[C@H](O)[C@@H](O)[C@@H]3O[C@H]3O[C@H](CO)[C@@H](O)[C@H](OC(N)=O)[C@@H]3O)c3ccc(S(=O)(=O)O)cc3C2(C)C)C(C)(C)c2cc(S(=O)(=O)[O-])ccc21 (stereo partly drawn) | – | – | – |
| – | – | NC(=O)O[C@@H]1[C@H](O)[C@@H](O[C@H]2C(OCCCCCC(=O)Nc3ccn(C4OC(CO)C(O)C4(F)F)c(=O)n3)O[C@H](CO)[C@H](O)[C@H]2O)O[C@H](CO)[C@H]1O (stereo partly drawn) | 130 nM | 2600 nM | 20 |
